Test results reported in patent US20160229835A1, “NOVEL PYRIDYLOXYACETYL TETRAHYDROISOQUINOLINE COMPOUNDS USEFUL AS NAMPT INHIBITORS” (ELI LILLY AND COMPANY, priority 2013, published 2016).

System: A2780 Cancer Cells
Assay: LC-MS Analysis of NAD+ and Carbohydrate Metabolites in A2780 Cancer Cells
Assay type: cell-based
Details: for Metabolite Levels (μM) DHAP / Metabolite Levels (μM) FBP / Metabolite Levels (μM) FP / Metabolite Levels (μM) NAD / Metabolite Levels (μM) SP: A2780 cells, 24 hours
Protocol: The purpose of this assay is to measure effects of NAMPT inhibitors on NAD^+ formation in cancer cells. LC-MS analysis of NAD^+ metabolites: nicotinamide mononucleotide (NMN), NAD^+, reduced nicotinamide adenine dinucleotide (NADH), and nicotinamide adenine dinucleotide phosphate (NADP) is performed on an HPLC system coupled to a Thermo Quantum Ultra triple quadrupole mass spectrometer operated in positive heated electrospray mode with selected reaction monitoring detection. For cell extracts, 50 μL of extract and 10 μL of 10 μM internal standard (IS) solution is transferred to a 96-well plate, dried under nitrogen and reconstituted in 50 μL of water. For tissue extracts, 20 μL of extract and 10 μL of IS solution are dried and reconstituted in 50 μL water. The IS solution contains 10 μM nicotinamide-d4 (C/D/N Isotopes), nicotinic acid-d4 (C/D/N Isotopes), nicotinamide mononucleotide-d4 (prepared by custom synthesis) and nicotinamide 1,N^6-ethenoadenine dinucleotide in methanol. The metabolites are separated on a Waters XBRIDGE™ Amide (2.1×50 mm, 3 μm) with an injection volume of 10 μL and a flow rate of 1 mL/minute using 10 mM ammonium acetate in 95% acetonitrile for mobile phase A and 10 mM ammonium acetate in 50% acetonitrile for mobile phase B. The gradient is as follows: 0 minutes, 0% B; 2.5 minutes, 70% B; 2.51 minutes, 100% B; 2.8 minutes, 100% B; 2.81 minutes, 0% B, 3.6 minutes, 0% B.
The purpose of this assay is to measure effects of NAMPT inhibitors on the levels of metabolites such as glucose-6-phosphate/fructose-6-phosphate/fructose-1-phosphate collectively as hexose phosphate (HP), fructose-1,6-bisphosphate (FBP), glyceraldehyde-3-phosphate (G3P), dihydroxyacetone phosphate (DHAP), 3-phosphoglycerate (3PG), 2-phosphoglycerate (2PG), phosphoenoylpyruvate (PEP), gluconate-6-phosphate (GN6P), xylulose-5-phosphate (X5P), ribulose-5-phosphate (Ru5P), ribose-5-phosphate (R5P), sedoheptulose-7-phosphate/sedoheptulose-1-phosphate collectively as sedoheptulose phosphate (SP), erythrose-4-phosphate (E4P), and α-ketoglutarate (α-KG) derived from glycolysis, the TCA cycle, and the pentose-phosphate pathway in tumor cells. Cells (50,000/well) are grown as described above in 100 μL of Dulbecco's Modified Eagle Medium supplemented with 10% FBS (dialyzed) and 25 mM glucose, and treated with a compound in triplicates in the presence or absence of 10 μM nicotinic acid. After 24 hours of treatment, the growth medium is removed and 200 μL of 80% methanol is added to each well. After incubation at room temperature for 15 minutes, the resulting extracts are transferred to 96-deep-well plates and washed twice with 200 μL of 80% methanol/water. Then, the plates are heat sealed and stored at −80° C., or dried and reconstituted in 100 μL of 25 μM ethylenediaminetetraacetic acid and injected into LC-MS for analysis.
The LC-MS analysis for carbohydrate metabolites is performed as follows. Chromatographic separations are performed with an HPLC system, which is coupled to an AB Sciex triple quadrupole LC-MS mass spectrometer. Analytes with phosphates are analyzed as follows. The samples are dried and reconstituted in ACN/water solutions and are separated on a Phenomenex Luna amino HPLC column (2.1×30 mm 3 μm) under the conditions as described by Yuan et al. (Nature Protocols, 2012, […], 872-881.). The mass spectrometer is operated under negative ESI MRM mode.

CC(C)(O)CS(=O)(=O)Nc1ccc2c(c1)CCN(C(=O)COc1cccnc1)C2 [Example 1, 2-Hydroxy-2-methyl-N-[2-[2-(3-pyridyloxy)acetyl]-3,4-dihydro-1H-isoquinolin-6-yl]propane-1-sulfonamide]
NAD formation (A2780 cancer cells, in words): dose-dependent inhibition
glycolytic intermediates (HP, FBP, and DHAP/G3P) before and at the G3P dehydrogenase step (A2780 cancer cells, in words): dose-dependent increase
intermediates (PEP, and PG) after the G3P dehydrogenase step (A2780 cancer cells, in words): dose-dependent decrease
key intermediates of the pentose phosphate pathway including SP (A2780 cancer cells, in words): increased
Metabolite Levels (μM) DHAP (compound 0.000508 μM): 0.6 µM
Metabolite Levels (μM) FBP (compound 0.000508 μM): 2.5 µM
Metabolite Levels (μM) FP (compound 0.000508 μM): 1.9 µM
Metabolite Levels (μM) NAD (compound 0.000508 μM): 0.331 µM
Metabolite Levels (μM) SP (compound 0.000508 μM): 0.3 µM
Metabolite Levels (μM) DHAP (compound 0.00152 μM): 0.6 µM
Metabolite Levels (μM) FBP (compound 0.00152 μM): 3.0 µM
Metabolite Levels (μM) FP (compound 0.00152 μM): 2.1 µM
Metabolite Levels (μM) NAD (compound 0.00152 μM): 0.244 µM
Metabolite Levels (μM) SP (compound 0.00152 μM): 0.3 µM
Metabolite Levels (μM) DHAP (compound 0.00457 μM): 0.6 µM
Metabolite Levels (μM) FBP (compound 0.00457 μM): 4.1 µM
Metabolite Levels (μM) FP (compound 0.00457 μM): 2.4 µM
Metabolite Levels (μM) NAD (compound 0.00457 μM): 0.089 µM
Metabolite Levels (μM) SP (compound 0.00457 μM): 0.4 µM
Metabolite Levels (μM) DHAP (compound 0.0137 μM): 1.0 µM
Metabolite Levels (μM) FBP (compound 0.0137 μM): 7.2 µM
Metabolite Levels (μM) FP (compound 0.0137 μM): 3.0 µM
Metabolite Levels (μM) NAD (compound 0.0137 μM): 0.027 µM
Metabolite Levels (μM) SP (compound 0.0137 μM): 0.5 µM
Metabolite Levels (μM) DHAP (compound 0.0412 μM): 2.0 µM
Metabolite Levels (μM) FBP (compound 0.0412 μM): 19.3 µM
Metabolite Levels (μM) FP (compound 0.0412 μM): 7.6 µM
Metabolite Levels (μM) NAD (compound 0.0412 μM): 0.014 µM
Metabolite Levels (μM) SP (compound 0.0412 μM): 1.3 µM
Metabolite Levels (μM) DHAP (compound 0.123 μM): 3.8 µM
Metabolite Levels (μM) FBP (compound 0.123 μM): 34.3 µM
Metabolite Levels (μM) FP (compound 0.123 μM): 15.1 µM
Metabolite Levels (μM) NAD (compound 0.123 μM): 0.008 µM
Metabolite Levels (μM) SP (compound 0.123 μM): 2.6 µM
Metabolite Levels (μM) DHAP (compound 0.37 μM): 5.0 µM
Metabolite Levels (μM) FBP (compound 0.37 μM): 40.9 µM
Metabolite Levels (μM) FP (compound 0.37 μM): 17.2 µM
Metabolite Levels (μM) NAD (compound 0.37 μM): 0.010 µM
Metabolite Levels (μM) SP (compound 0.37 μM): 3.2 µM
Metabolite Levels (μM) DHAP (compound 1.111 μM): 5.4 µM
Metabolite Levels (μM) FBP (compound 1.111 μM): 38.6 µM
Metabolite Levels (μM) FP (compound 1.111 μM): 18.0 µM
Metabolite Levels (μM) NAD (compound 1.111 μM): 0.008 µM
Metabolite Levels (μM) SP (compound 1.111 μM): 3.3 µM
Metabolite Levels (μM) DHAP (compound 3.333 μM): 5.2 µM
Metabolite Levels (μM) FBP (compound 3.333 μM): 43.0 µM
Metabolite Levels (μM) FP (compound 3.333 μM): 18.8 µM
Metabolite Levels (μM) NAD (compound 3.333 μM): 0.007 µM
Metabolite Levels (μM) SP (compound 3.333 μM): 3.4 µM
Metabolite Levels (μM) DHAP (compound 10 μM): 5.5 µM
Metabolite Levels (μM) FBP (compound 10 μM): 39.7 µM
Metabolite Levels (μM) FP (compound 10 μM): 17.1 µM
Metabolite Levels (μM) NAD (compound 10 μM): 0.008 µM
Metabolite Levels (μM) SP (compound 10 μM): 2.8 µM
